# Laboratory results from patent US12545652B2, “Crystalline forms of a TYK2 inhibitor” (Sareum Limited, priority 2020, dated 2026).
# “Also recorded” adds a separate entry of the source. Where two headings read alike, the source gives them in different places.
# Columns and labels:
# [1] = test system: pSTAT3 in IL-22 stimulated HT29 cells; assay: pSTAT3 inhibition in response to IL-22 stimulation in serum starved HT29 cells; type: cell-based; conditions: Homo sapiens, HT-29
# Procedure: HT29 cells were serum starved overnight before the four test compounds were diluted to generate a 9-point semi-log dose dilution with a top concentration of 10 μM, plus vehicle control. HT29 cells were incubated with the test compounds for 20 minutes at 37° C. HT29 cells were incubated for a further 15 minutes with 10 ng/ml human IL-22 before cells were fixed with 4% PFA for 10 minutes, and 90% methanol for 30 minutes before being labelled with a phospho-STAT3Y705 antibody (CST #9145). Cells were rinsed three times using 0.5% BSA/PBS solution before being incubated with Alexa-488 anti-rabbit secondary antibodies.
# Mean fluorescence intensity of phospho-STAT3 in single cells was analysed by flow cytometry using an Intellicyt iQue instrument and FlowJo software. The IC50 was determined using a four-parameter analysis following removal of background signal and normalisation to the DMSO control.
# [2] = Hepatocyte stability assay, mouse; type: in vitro ADME; conditions: male, CD-1, pooled hepatocytes
# Procedure: (§1) Test and control compounds were incubated with hepatocytes at 37° C. Aliquots were removed at 6 timepoints over a one hour period. Samples were centrifuged and the supernatant fractions analysed for parent compound by mass spectrometry (LC-MS/MS).
# (§2) The amount of compound remaining (expressed as %) was determined from the MS response in each sample relative to that in the T=0 samples, and used to determine the half-life and intrinsic clearance of the compound.
# [3] = Hepatocyte stability assay, rat; type: in vitro ADME; conditions: male, Sprague-Dawley, pooled hepatocytes
# Procedure: as §1, §2
# [4] = Hepatocyte stability assay, human; type: in vitro ADME; conditions: both sexes, pooled hepatocytes; for half-life: human
# Procedure: as §1, §2
# [5] = Hepatocyte stability assay, dog; type: in vitro ADME; conditions: male, Beagle, pooled hepatocytes
# Procedure: as §1, §2
# JAK2 = JAK2 kinase inhibition assay (33P-ATP filter binding, Reaction Biology); type: biochemical
# Procedure: (§3) The compound of the formula (1) was assayed for its ability to inhibit TYK2 kinase and other JAK kinases.
# (§4) Substrates and kinases used in the assays are identified in Table 12 below.
# (§5) Kinase assays were performed at Reaction Biology Corp., Malvern, Pennsylvania, USA, using the general procedure set out below. In the assays, the ATP concentration was 100 μM and the top compound concentrations were 10 μM.
# (§6) Note that the TYK2 and JAK kinase data in Table 7 on page 61 of WO 2015/032423 were generated using an assay in which the ATP concentration was 10 μM whereas, as indicated above, the assay described in the protocol below used an ATP concentration of 100 μM. […]
# TYK2 kinase = TYK2 kinase (Homo sapiens (Human), UniProt P29597); assay: TYK2 kinase inhibition assay (33P-ATP filter binding, Reaction Biology); type: biochemical; conditions: ratio of IC50 to TYK2 IC50
# Chain of TYK2 kinase (P29597 833-1187): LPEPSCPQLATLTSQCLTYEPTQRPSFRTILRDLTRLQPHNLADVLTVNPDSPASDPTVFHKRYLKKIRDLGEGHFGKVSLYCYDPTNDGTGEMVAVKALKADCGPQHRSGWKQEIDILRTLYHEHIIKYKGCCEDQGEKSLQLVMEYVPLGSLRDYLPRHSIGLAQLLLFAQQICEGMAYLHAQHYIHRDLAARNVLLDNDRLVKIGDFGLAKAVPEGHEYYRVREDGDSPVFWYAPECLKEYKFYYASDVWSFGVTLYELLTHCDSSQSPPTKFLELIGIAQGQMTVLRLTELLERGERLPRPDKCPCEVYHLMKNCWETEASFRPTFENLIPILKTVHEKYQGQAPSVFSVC
# Procedure: as §3, §4, §5, §6
# JAK1 = JAK1 (Homo sapiens (Human), UniProt P23458); assay: JAK1 kinase inhibition assay (33P-ATP filter binding, Reaction Biology); type: biochemical; conditions: ratio of IC50 to TYK2 IC50
# Chain of JAK1 (P23458 866-1154): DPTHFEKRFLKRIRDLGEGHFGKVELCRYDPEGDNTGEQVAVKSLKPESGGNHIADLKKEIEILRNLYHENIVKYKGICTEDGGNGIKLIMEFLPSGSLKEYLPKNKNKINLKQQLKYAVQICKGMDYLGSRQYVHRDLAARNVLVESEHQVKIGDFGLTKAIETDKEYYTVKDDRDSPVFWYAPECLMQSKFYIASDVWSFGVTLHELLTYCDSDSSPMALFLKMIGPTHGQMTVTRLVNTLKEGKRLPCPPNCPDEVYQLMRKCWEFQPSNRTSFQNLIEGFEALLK
# Procedure: as §3, §4, §5, §6
# [6] = Solubility at 25° C. by HPLC of filtrates after equilibration of Form A in solvents; type: physicochemical; conditions: for solubility: 25 °C, organic solvent or mixture, thermodynamic from solid
# JAK3 = JAK3 (Homo sapiens (Human), UniProt P52333); assay: JAK3 kinase inhibition assay (33P-ATP filter binding, Reaction Biology); type: biochemical
# Chain of JAK3 (P52333 781-1124): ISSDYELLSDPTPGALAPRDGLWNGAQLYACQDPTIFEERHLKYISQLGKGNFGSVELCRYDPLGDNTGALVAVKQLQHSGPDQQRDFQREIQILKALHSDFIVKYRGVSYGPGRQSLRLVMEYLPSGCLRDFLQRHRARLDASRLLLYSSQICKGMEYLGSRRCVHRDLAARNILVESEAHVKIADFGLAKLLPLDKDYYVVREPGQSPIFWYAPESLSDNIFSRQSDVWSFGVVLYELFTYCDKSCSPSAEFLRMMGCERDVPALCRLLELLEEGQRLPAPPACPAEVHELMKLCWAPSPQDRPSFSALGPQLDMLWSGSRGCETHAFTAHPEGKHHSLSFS
# Procedure: as §3, §4, §5, §6
# [7] = Compression stability test (10×10^4N force); type: physicochemical
# Procedure: Compression stability tests were carried out on samples from two batches of crystalline Form A and samples from two batches of Crystalline Form B. One pair of samples of Form A and Form B was subjected to compression under 10×10^4N force for 23 and 23¾ hours respectively to assess the impact upon form fate and chemical stability.
# The other pair of samples of Form A and Form B was subjected to similar compression pressures over an extended duration of 7 days to assess the impact of prolonged compression force upon form fate and chemical stability.
# [8] = Dynamic vapour sorption (DVS); type: physicochemical
# Procedure: Sorption isotherms were obtained using a Hiden Isochema moisture sorption analyser (model IGAsorp), controlled by IGAsorp Systems Software V6.50.48. The sample was maintained at a constant temperature (25° C.) by the instrument controls. The humidity was controlled by mixing streams of dry and wet nitrogen, with a total flow of 250 ml·min^−1. The instrument was verified for relative humidity content by measuring three calibrated Rotronic salt solutions (10-50-88%). The weight change of the sample was monitored as a function of humidity by a microbalance (accuracy +/−0.005 mg). A defined amount of sample was placed in a tared mesh stainless steel basket under ambient conditions. A full experimental cycle typically consisted of three scans (sorption, desorption and sorption) at a constant temperature (25° C.) and 10% RH intervals over a 0-90% range (60 minutes for each humidity level).
# [9] = IL-22 stimulated serum starved HT29 cells, read-out: pSTAT3 inhibition IC50
# [10] = Human hepatocytes, read-out: T1/2
compound,measurement,setting,value
"NC(=O)c1nc(-c2c(Cl)cccc2Cl)oc1Nc1ccc(C(=O)N2CCOCC2)cc1 [Comparative Compound B, 2-(2,6-dichloro-phenyl)-5-[4-(morpholine-4-carbonyl)-phenylamino]-oxazole-4-carboxylic acid amide, reference compound]",IC50,[1]; [9],53 nM
same,half-life,[2],27 min
same,half-life,[3],14.8 min
same,half-life,[4]; [10],124 min
same,half-life,"[4]; human hepatocytes, read-out: half-life in humans",> 120 min
same,half-life,[5],53.5 min
"NC(=O)c1nc(-c2c(Cl)cccc2Cl)oc1Nc1ccc(C(=O)N2CCS(=O)(=O)CC2)cc1 [Compound (1), 2-(2,6-dichlorophenyl)-5-[4-(1,1-dioxo-1,4-thiazinane-4-carbonyl)anilino]oxazole-4-carboxamide]",selectivity for TYK2 compared to JAK2,JAK2; biochemical assays,approximately 25 fold
same,Selectivity v TYK2: JAK2,JAK2; ratio of IC50 to TYK2 IC50,26.3
same,Selectivity v TYK2: TYK2,TYK2 kinase,1
same,IC50,"[1]; IL-22 stimulated HT29 cells, read-out: IC50 against pSTAT3 inhibition",< 100 nM
same,IC50,[1]; [9],16 nM
same,Selectivity v TYK2: JAK1,JAK1,10.5
same,half-life,[2],65.3 min
same,half-life,[3],30.6 min
same,Solubility at 25° C.,[6]; 2-Chlorobutane,< 1000 µg/mL
same,Solubility at 25° C.,[6]; 4:1 THF/water,> 10000 µg/mL
same,Solubility at 25° C.,[6]; Cyclohexane,< 1000 µg/mL
same,Solubility at 25° C.,[6]; DCM,> 10000 µg/mL
same,Solubility at 25° C.,[6]; Nitromethane,> 10000 µg/mL
same,solubility,[6]; TBME,< 1000 µg/mL
same,Solubility at 25° C.,[6]; THF,> 10000 µg/mL
same,Solubility at 25° C.,[6]; Water,< 1000 µg/mL
same,solubility,[6]; anisole,> 10000 µg/mL
same,solubility,"[6]; heptane, no peak detected in the chromatogram for the filtrate (×100 dilution)",< 1000 µg/mL
same,half-life,[4]; [10],> 460 min
same,hepatocyte CLint,[4]; Human hepatocytes,< 3 µL/min/1e6 cells
same,selectivity for TYK2 compared to JAK3,JAK3; biochemical assays,~110 fold
same,Selectivity v TYK2: JAK3,JAK3; ratio of IC50 to TYK2 IC50,111.6
same,half-life,[5],> 460 min
same,hepatocyte CLint,[5],< 3 µL/min/1e6 cells
"NC(=O)c1nc(-c2c(Cl)cccc2Cl)oc1Nc1ccc(C(=O)N2CCS(=O)(=O)CC2)cc1 [Form B, 2-(2,6-dichlorophenyl)-5-[4-(1,1-dioxo-1,4-thiazinane-4-carbonyl)anilino]oxazole-4-carboxamide]",HPLC assessment post-compression (chemical stability),[7]; compression for 7 days,no change to the impurity profile; also recorded: no discernible chemical degradation
same,XRPD examination of solids isolated post-compression (form fate),[7]; compression for both ca. 1 and 7 days,diffraction pattern matching the input Pattern B but of reduced diffraction resolution
same,HPLC assessment post-compression (chemical stability),"[7]; compression for ca. 1 day (23 / 23¾ hours), 10×10^4N",no change to the impurity profile; also recorded: no discernible chemical degradation
same,XRPD examination of the solid isolated post-DVS,[8]; at 0 and 90% RH,no clear evidence of form modification
same,DVS total weight gain upon sorption,"[8]; from 0 to 90% RH, 25° C.",ca. 0.57 wt %
same,DVS weight reduction upon the first desorption,"[8]; from 50 to 0% RH, 25° C.",ca. 0.38 wt %
same,DVS hysteresis,"[8]; repeat desorption and sorption, most evident between 10 and 60% RH",ca. 0.11 wt %
